Laboratory results as given in patent US20220056018A1, “SREBP INHIBITORS COMPRISING A THIOPHENE CENTRAL RING” (Capulus Therapeutics, LLC, priority 2019, published 2022).
pIC50: −log10 of the molar value.

Experiments:
Test in all cases: Cancer cell growth inhibition
Format in all cases: cell-based
22RV1 = settings: Homo sapiens; 22RV1 (prostate), 72 hr treatment
Protocol: (§1) The ability of select compounds to inhibit cell growth in various cancer cell lines are evaluated. […] The cell lines shown in Table 2 have reduced growth by at least 50% at 10 uM or lower over 72 hr treatment in growth media. The cell lines shown in Table 3 have reduced growth by at least 50% with an IC50 greater than 10 uM.
(§2) Six 10-fold compound dilutions are prepared in DMSO (e.g. 10 mM, 1 mM, 100 uM, 10 uM, 1 uM, and 0.1 uM). Single data points are acquired for each concentration. The final concentration of DMSO is 0.1%. The duration of the treatment is 72 hr. Growth inhibition is measured using Sulforhodamine B in a protein staining assay. Activity of the agents is determined by evaluation the following parameters: IC50, GI50, IC10, TGI, LC50, IC90, and GI90 (where these values can be calculated).

786O = settings: Homo sapiens, 786-0; 786O (kidney), 72 hr treatment
Protocol: as §1, §2

A431 = settings: Homo sapiens, A-431; A431 (skin), 72 hr treatment
Protocol: as §1, §2

BXPC3 = settings: Homo sapiens, BXPC-3; BXPC3 (pancreas), 72 hr treatment
Protocol: as §1, §2

CASKI = settings: Homo sapiens, Ca-Ski; CASKI (endometrial), 72 hr treatment
Protocol: as §1, §2

CLS439 = CLS439 (bladder), 72 hr treatment
Protocol: as §1, §2

COLO205 = settings: Homo sapiens, COLO 205; COLO205 (colon), 72 hr treatment
Protocol: as §1, §2

COLO678 = settings: Homo sapiens, COLO-678; COLO678 (colon), 72 hr treatment
Protocol: as §1, §2

DU145 = settings: Homo sapiens, DU-145; DU145 (prostate), 72 hr treatment
Protocol: as §1, §2

EJ28 = settings: Homo sapiens, EJ-28; EJ28 (bladder), 72 hr treatment
Protocol: as §1, §2

HCT15 = settings: Homo sapiens, HCT-15; HCT15 (colon), 72 hr treatment
Protocol: as §1, §2

HEPG2 = settings: Homo sapiens; HEPG2 (liver), 72 hr treatment
Protocol: as §1, §2

HS578T = settings: Homo sapiens, Hs-578T; HS578T (breast), 72 hr treatment
Protocol: as §1, §2

HS729 = HS729 (muscle), 72 hr treatment
Protocol: as §1, §2

MCF7 = settings: Homo sapiens; MCF7 (breast), 72 hr treatment
Protocol: as §1, §2

MDAMB435 = settings: Homo sapiens, MDA-MB-435; MDAMB435 (skin), 72 hr treatment
Protocol: as §1, §2

MDAMB436 = settings: Homo sapiens, MDA-MB-436; MDAMB436 (breast), 72 hr treatment
Protocol: as §1, §2

NCIH292 = settings: Homo sapiens, NCI-H292; NCIH292 (lung), 72 hr treatment
Protocol: as §1, §2

NCIH82 = settings: Homo sapiens, NCI-H82; NCIH82 (lung), 72 hr treatment
Protocol: as §1, §2

RAMOS = settings: Homo sapiens; RAMOS (hematological), 72 hr treatment
Protocol: as §1, §2

RDES = settings: RD-ES; RDES (bone), 72 hr treatment
Protocol: as §1, §2

SAOS2 = settings: Homo sapiens, SAOS-2; SAOS2 (bone), 72 hr treatment
Protocol: as §1, §2

SKBR3 = settings: Homo sapiens, SK-BR-3; SKBR3 (breast), 72 hr treatment
Protocol: as §1, §2

SNB75 = settings: Homo sapiens, SNB-75; SNB75 (brain), 72 hr treatment
Protocol: as §1, §2

SU-DHL-6 = settings: Homo sapiens; SU-DHL-6 (hematological), 72 hr treatment
Protocol: as §1, §2

SW620 = settings: Homo sapiens, SW-620; SW620 (colon), 72 hr treatment
Protocol: as §1, §2

TE671 = settings: Homo sapiens, TE-671; TE671 (muscle), 72 hr treatment
Protocol: as §1, §2

THP-1 = settings: Homo sapiens; THP-1 (hematological), 72 hr treatment
Protocol: as §1, §2

U87MG = settings: Homo sapiens, U-87 MG; U87MG (brain), 72 hr treatment
Protocol: as §1, §2

UO31 = settings: Homo sapiens, UO-31; UO31 (kidney), 72 hr treatment
Protocol: as §1, §2

WSU-NHL = settings: Homo sapiens; WSU-NHL (hematological), 72 hr treatment
Protocol: as §1, §2

Q: With CC(C)(CO)c1cc(-c2csc(-c3ccc(NS(C)(=O)=O)cc3Cl)c2)ccn1 [Compound I-8909, N-(3-chloro-4-(4-(2-(1-hydroxy-2-methylpropan-2-yl)pyridin-4-yl)thiophen-2-yl)phenyl)methanesulfonamide] as the compound, how does the pIC50 (22RV1) read?
A: > 5.00

Q: And the pIC50 (786O)?
A: > 5.00

Q: What about the pIC50 (A431) of the same compound?
A: < 5.00

Q: What about the pIC50 (BXPC3) of the same compound?
A: < 5.00

Q: What about the pIC50 (CASKI) of the same compound?
A: < 5.00

Q: What about the pIC50 (CLS439) of the same compound?
A: < 5.00

Q: And the pIC50 (COLO205)?
A: > 5.00

Q: What about the pIC50 (COLO678) of the same compound?
A: > 5.00

Q: What about the pIC50 (DU145) of the same compound?
A: < 5.00

Q: What about the pIC50 (EJ28) of the same compound?
A: < 5.00

Q: And the pIC50 (HCT15)?
A: < 5.00

Q: What about the pIC50 (HEPG2) of the same compound?
A: > 5.00

Q: What about the pIC50 (HS578T) of the same compound?
A: < 5.00

Q: What about the pIC50 (HS729) of the same compound?
A: < 5.00

Q: And the pIC50 (MCF7)?
A: > 5.00

Q: And the pIC50 (MDAMB435)?
A: < 5.00

Q: What about the pIC50 (MDAMB436) of the same compound?
A: < 5.00

Q: And the pIC50 (NCIH292)?
A: > 5.00

Q: What about the pIC50 (NCIH82) of the same compound?
A: > 5.00

Q: And the pIC50 (RAMOS)?
A: > 5.00

Q: And the pIC50 (RDES)?
A: < 5.00

Q: And the pIC50 (SAOS2)?
A: < 5.00

Q: What about the pIC50 (SKBR3) of the same compound?
A: > 5.00

Q: What about the pIC50 (SNB75) of the same compound?
A: < 5.00

Q: And the pIC50 (SU-DHL-6)?
A: > 5.00

Q: What about the pIC50 (SW620) of the same compound?
A: < 5.00

Q: And the pIC50 (TE671)?
A: > 5.00

Q: What about the pIC50 (THP-1) of the same compound?
A: > 5.00

Q: And the pIC50 (U87MG)?
A: < 5.00

Q: And the pIC50 (UO31)?
A: < 5.00

Q: What about the pIC50 (WSU-NHL) of the same compound?
A: > 5.00

Q: Which results are given for CC(C)(O)Cc1cc(-c2csc(-c3ccc(NS(C)(=O)=O)cc3Cl)c2)ccn1 [Compound I-9004, N-(3-chloro-4-(4-(2-(2-hydroxy-2-methylpropyl)pyridin-4-yl)thiophen-2-yl)phenyl)methanesulfonamide]?
A: pIC50 (22RV1): > 5.00; pIC50 (786O): > 5.00; pIC50 (A431): < 5.00; pIC50 (BXPC3): < 5.00; pIC50 (CASKI): < 5.00; pIC50 (CLS439): < 5.00; pIC50 (COLO205): > 5.00; pIC50 (COLO678): > 5.00; pIC50 (DU145): < 5.00; pIC50 (EJ28): < 5.00; pIC50 (HCT15): > 5.00; pIC50 (HEPG2): > 5.00; pIC50 (HS578T): < 5.00; pIC50 (HS729): < 5.00; pIC50 (MCF7): > 5.00; pIC50 (MDAMB435): > 5.00; pIC50 (MDAMB436): > 5.00; pIC50 (NCIH292): > 5.00; pIC50 (NCIH82): > 5.00; pIC50 (RAMOS): > 5.00; pIC50 (RDES): < 5.00; pIC50 (SAOS2): < 5.00; pIC50 (SKBR3): > 5.00; pIC50 (SNB75): < 5.00; pIC50 (SU-DHL-6): > 5.00; pIC50 (SW620): < 5.00; pIC50 (TE671): > 5.00; pIC50 (THP-1): > 5.00; pIC50 (U87MG): < 5.00; pIC50 (UO31): < 5.00; pIC50 (WSU-NHL): > 5.00

Q: What does the source list for CS(=O)(=O)Nc1ccc(-c2cc(-c3ccnc4c3OCCO4)cs2)c(Cl)c1 [Compound I-9017, N-(3-chloro-4-(4-(2,3-dihydro-[1,4]dioxino[2,3-b]pyridin-8-yl)thiophen-2-yl)phenyl)methanesulfonamide]?
A: pIC50 (22RV1): > 5.00; pIC50 (786O): > 5.00; pIC50 (A431): < 5.00; pIC50 (BXPC3): > 5.00; pIC50 (CASKI): < 5.00; pIC50 (CLS439): > 5.00; pIC50 (COLO205): > 5.00; pIC50 (COLO678): > 5.00; pIC50 (DU145): > 5.00; pIC50 (EJ28): < 5.00; pIC50 (HCT15): < 5.00; pIC50 (HEPG2): > 5.00; pIC50 (HS578T): < 5.00; pIC50 (HS729): < 5.00; pIC50 (MCF7): > 5.00; pIC50 (MDAMB435): < 5.00; pIC50 (MDAMB436): > 5.00; pIC50 (NCIH292): > 5.00; pIC50 (NCIH82): > 5.00; pIC50 (RAMOS): > 5.00; pIC50 (RDES): > 5.00; pIC50 (SAOS2): > 5.00; pIC50 (SKBR3): > 5.00; pIC50 (SNB75): < 5.00; pIC50 (SU-DHL-6): > 5.00; pIC50 (SW620): > 5.00; pIC50 (TE671): > 5.00; pIC50 (THP-1): > 5.00; pIC50 (U87MG): > 5.00; pIC50 (UO31): > 5.00; pIC50 (WSU-NHL): > 5.00
